From paper PMC10439952, “JT002, a small molecule inhibitor of the NLRP3 inflammasome for the treatment of autoinflammatory disorders” (Scientific Reports, 2023)
pIC50: −log10 of the molar value.

What was measured:
[1] = tested on: pyroptosis of mouse BMDMs; assay: Inhibition of pyroptotic cell death measured by cellular ATP content (CellTiter-Glo viability) in LPS + nigericin stimulated mouse BMDMs; assay type: cell-based; conditions: Mouse BMDM, read-out: Geo Av IC50, Viability (pyroptosis, cellular ATP content)
Protocol: (§1) Cell viability was determined by addition of an equal volume of CellTiter-Glo® 2.0 reagent (Promega) to the remaining cells/supernatant in each well. Intracellular Caspase-1 activity was measured using the Caspase-Glo® assay (Promega) according to the manufacturer’s instructions. The biochemical capsase-1 assay was conducted at Reaction Biology Corporation (Malvern, USA). Human IL-1β, IL-1α, and TNFα and mouse IL-1β were measured in cell culture supernatants using homogeneous time resolved fluorescence assay kits (HTRF, Cisbio, Codolet, France). Human IL-18 was measured in cell culture supernatants using an ELISA kit (R&D Systems, Minneapolis, MN, USA). Plasma IL-1β concentrations were determined by Quantikine® ELISA (R&D Systems, Minneapolis, MN).
4H). MS: m/z 433.1 (M+H+).
Inflammasome activation.PBMCs (iXCells Biotechnologies, San Diego, USA) were thawed the day before the assay and seeded in complete medium (RPMI 1640 medium with GlutaMAX, supplemented with an additional 2.5 g/L D-glucose, 10% Fet al Bovine Serum, 100 mM Sodium Pyruvate, 1% Penicillin/Streptomycin, 10 mM HEPES and 0.05 mM β -mercaptoethanol) in polystyrene V-bottom 96-well plates at 5x10^4 cells per well and incubated overnight at 37°C with 5% CO 2. The next day, PBMC media was r eplaced with serum-fr ee media p rior t o the assay. […]

AIM2 inflammasome = target: T1, AIM2 inflammasome (Mus musculus, UniProt Q91VJ1); assay: IL-1β production in mouse BMDMs after AIM2 activation (LPS + poly(dA:dT)); assay type: cell-based; conditions: mBMDMs, concentrations up to 10 µM
T1 construct: host or cells: mouse BMDMs, LPS + transfected poly(dA:dT)
T1 sequence (Q91VJ1 1-354): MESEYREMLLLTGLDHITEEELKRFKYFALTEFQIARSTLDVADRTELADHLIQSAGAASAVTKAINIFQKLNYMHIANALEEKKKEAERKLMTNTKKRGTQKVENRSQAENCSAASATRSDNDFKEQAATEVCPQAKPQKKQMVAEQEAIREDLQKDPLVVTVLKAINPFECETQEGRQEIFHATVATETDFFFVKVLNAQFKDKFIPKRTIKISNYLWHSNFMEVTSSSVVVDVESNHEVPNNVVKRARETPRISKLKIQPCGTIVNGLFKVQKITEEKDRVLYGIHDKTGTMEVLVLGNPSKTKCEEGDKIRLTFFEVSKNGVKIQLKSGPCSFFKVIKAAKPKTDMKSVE
Protocol: as §1
4H). MS: m/z 433.1 (M+H+). […]
flagellin, prepared in Opt iMEM and combined with Lipofectamine 2000. […] After priming Nlrp3 -/- mBMDMs with 100 ng/mL of LPS for 3- 5 h, cells were exposed to 100 ng/mL L18- MDP and incubated overnight.At the end of the incubation period of the assays above, plates were briefly centri fuged and hal f of the cell culture supern atant remo ved and either analysed i mmediately or stored at - 80°C for subs equent cytokine […]

## CO[C@@H]1COc2c(S(=O)(=O)NC(=O)Nc3c4c(cc5c3CCC5)CCC4)cnn2C1 [JT002]
[1]
  pIC50: 8.15
AIM2 inflammasome
  inhibition of IL-1β production after AIM2 activation: no inhibition of IL-1β production
